Marks after values point to notes of the source that are not given here.
Key:
[1] = tested on: acetaminophen induced liver injury; assay: Acetaminophen induced liver injury in mice; format: in vivo; conditions: 5.85 mg/kg gastric infusion, 10 days
Description: Ethyl 11-deoxy-18α-glycyrrhetinate: provided by traditional Chinese medicine laboratory, R&D center of Jiangsu Chia Tai Tianqing Pharmaceutical Co., Ltd. Bifendate pills: produced by Beijing Union Pharmaceutical factory. Daily dosage of human is 45 mg, used as the positive control medicine. Acetaminophen: produced by Jinzhou biochemical pharmaceutical factory. All medicines were prepared to desired concentrations with physiological saline according to the requirement of experiment. AST, ALT Kit: product of Nanjing Jiancheng bioengineering research institute.
60 mice were randomly divided into 6 groups: the normal control group, Bifendate group (positive medicine group), model control group, various doses of ethyl 11-deoxy-18α-glycyrrhetinate groups (240, 120, 60 mg/kg). After the animals were adaptively fed for 3 days, animals in each group were administered the medicines by gastric infusion for 10 days (one time/day). Animals in the normal control group and model group were administered 0.2 ml/mouse of physiological saline. 6 hours after the last administration, animals in each group, except the animals in normal control group, were intraperitoneally injected 400 mg kg-1 acetaminophen. After 12 hours, blood was taken by orbital bleeding. Activities of alanine aminotransferase (ALT), aspartate aminotransferase (AST) were measured. And T test of groups was performed, see table 7;

[2] = tested on: BCG + LPS induced liver injury; assay: BCG+LPS induced liver injury in mice; format: in vivo, Kunming mice; conditions: 5.85 mg/kg gastric infusion, 7 days
[3] = tested on: TAA induced acute liver injury; assay: TAA induced acute liver injury mouse model; format: in vivo, ICR male mice; parameters: Average grade of hepatocyte necrosis: scale not given here; conditions: 240 mg/kg IG
Description: 50 ICR male mice were randomly divided into 5 groups of 10 mice in each group: the model group, diammonium glycyrrhizinate group (240 mg/kg), high dose of ethyl 11-deoxy-18α-glycyrrhetinate group (240 mg/kg), middle dose of ethyl 11-deoxy-18α-glycyrrhetinate group (120 mg/kg), and low dose of ethyl 11-deoxy-18α-glycyrrhetinate group (60 mg/kg). The mice in model group were administered equal amount of 0.5% CMC-Na by IG.

[4] = tested on: D-Galn induced acute liver injury; assay: D-Galn induced acute liver injury mouse model; format: in vivo, ICR male mice; conditions: Table 2 experiment, 7 days
Description: 1. Comparison of therapeutic effects of ethyl 11-deoxy-18α-glycyrrhetinate and compound glycyrrhizin injection on ICR male mouse models of the D-Galn induced acute liver injury
Methods: 60 ICR male mice were randomly divided into 6 groups of 10 mice in each group: the model group, compound glycyrrhizin injection group (60 mg/kg), compound glycyrrhizin gastric infusion group (240 mg /kg), high dose of ethyl 11-deoxy-18α-glycyrrhetinate group (240 mg/kg), middle dose of ethyl 11-deoxy-18α-glycyrrhetinate group (120 mg/kg), low dose of ethyl 11-deoxy-18α-glycyrrhetinate group (60 mg/kg). […] The mice in model group were administered equal amount of 0.5% CMC-Na by gastric infusion.

COC(=O)c1cc(OC)c2c(c1-c1c(C(=O)OC)cc(OC)c3c1OCO3)OCO2 [Bifendate, reference compound]
ALT [1]: 134.6 ± 12.9 U/L | AST [1]: 162.3 ± 31.7 U/L | ALT [2]: 110.5 ± 11.9 U/L | AST [2]: 152.3 ± 41.6 U/L

CC1(C)[C@@H](O[C@H]2O[C@H](C(=O)O)[C@@H](O)[C@H](O)[C@H]2O[C@@H]2O[C@H](C(=O)O)[C@@H](O)[C@H](O)[C@H]2O)CC[C@]2(C)[C@H]3C(=O)C=C4[C@@H]5C[C@@](C)(C(=O)O)CC[C@]5(C)CC[C@@]4(C)[C@]3(C)CC[C@@H]12.N.N [Diammonium glycyrrhizinate, diammonium glycyrrhizinate, reference compound]
ALT [3]: 1568 ± 721 U/ml | ALT Inhibition % [3]: 31% | AST [3]: 1039 ± 623 U/ml | AST Inhibition % [3]: 40% | Average grade of hepatocyte necrosis [3]: 1.3** | Grade of hepatocyte necrosis 0 (number of mice) ([3]; N=10): 0 | Grade of hepatocyte necrosis 1 (number of mice) ([3]; N=10): 7 | Grade of hepatocyte necrosis 2 (number of mice) ([3]; N=10): 3 | Grade of hepatocyte necrosis 3 (number of mice) ([3]; N=10): 0 | Grade of hepatocyte necrosis 4 (number of mice) ([3]; N=10): 0 | ALT ([4]; 60 mg/kg IP): 383 ± 393 U/ml | ALT Inhibition % ([4]; 60 mg/kg IP): 80% | AST ([4]; 60 mg/kg IP): 308 ± 389 U/ml | AST Inhibition % ([4]; 60 mg/kg IP): 73% | ALT ([4]; 240 mg/kg IG): 993 ± 479 U/ml | ALT Inhibition % ([4]; 240 mg/kg IG): 49% | AST ([4]; 240 mg/kg IG): 566 ± 291 U/ml | AST Inhibition % ([4]; 240 mg/kg IG): 50%

Reference: patent US20120172438A1, “GLYCYRRHETINIC ACID ESTER DERIVATIVE SYNTHESIS METHOD AND DEOXOGLYCYRRHETINIC ACID ESTER COMPOUND” (priority 2009, published 2012)
